Source: PubChem BioAssay (NCI)
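Where inhibition never reached the appropriate level, the endpoint shown equals the highest concentration tested. Otherwise, values were interpolated linearly from a five-concentration, 48-hour dose response in 96-well plates. At the GI50, growth is halved. TGI marks complete inhibition of growth.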

What was measured:
Assay in all cases: NCI anticancer screen, dose series, 48 h
NCI-H226 lung = system: NCI-H226 lung
NCI-H460 lung = system: NCI-H460 lung
NCI-H522 lung = system: NCI-H522 lung
NCI/ADR-RES ovarian = system: NCI/ADR-RES ovarian
OVCAR-3 ovarian = system: OVCAR-3 ovarian
OVCAR-4 ovarian = system: OVCAR-4 ovarian
OVCAR-5 ovarian = system: OVCAR-5 ovarian
OVCAR-8 ovarian = system: OVCAR-8 ovarian
PC-3 prostate = system: PC-3 prostate
RPMI-8226 leukemia = system: RPMI-8226 leukemia
RXF 393 renal = system: RXF 393 renal
SF-268 CNS = system: SF-268 CNS
SF-295 CNS = system: SF-295 CNS
SF-539 CNS = system: SF-539 CNS
SK-MEL-2 melanoma = system: SK-MEL-2 melanoma
SK-MEL-28 melanoma = system: SK-MEL-28 melanoma
SK-MEL-5 melanoma = system: SK-MEL-5 melanoma
SK-OV-3 ovarian = system: SK-OV-3 ovarian
SN12C renal = system: SN12C renal
SNB-19 CNS = system: SNB-19 CNS
SNB-75 CNS = system: SNB-75 CNS
SR leukemia = system: SR leukemia
SW-620 colon = system: SW-620 colon
T-47D breast = system: T-47D breast
TK-10 renal = system: TK-10 renal
U251 CNS = system: U251 CNS
UACC-257 melanoma = system: UACC-257 melanoma
UACC-62 melanoma = system: UACC-62 melanoma
UO-31 renal = system: UO-31 renal

For COc1cc(OC)c(S(N)(=O)=O)cc1C(=O)/C=C/c1ccccc1, the TGI (NCI-H226 lung) was 26.4 µM, the GI50 (NCI-H460 lung) was 1.95 µM and the TGI (NCI-H460 lung) was 12.5 µM. It also gave a GI50 (NCI-H522 lung) of 6.56 µM, a TGI (NCI-H522 lung) of 20.8 µM and a GI50 (NCI/ADR-RES ovarian) of 15.5 µM. It also gave a TGI (NCI/ADR-RES ovarian) of 57.6 µM, a GI50 (OVCAR-3 ovarian) of 2.71 µM and a TGI (OVCAR-3 ovarian) of 13.1 µM. The GI50 (OVCAR-4 ovarian) was 11.8 µM, the TGI (OVCAR-4 ovarian) was 25.7 µM and the GI50 (OVCAR-5 ovarian) was 13.2 µM. The TGI (OVCAR-5 ovarian) was 26.7 µM, the GI50 (OVCAR-8 ovarian) was 11.3 µM and the TGI (OVCAR-8 ovarian) was 24.1 µM. For the same compound, the GI50 (PC-3 prostate) was 5.95 µM, the TGI (PC-3 prostate) was 20.6 µM and the GI50 (RPMI-8226 leukemia) was 2.98 µM. It also gave a TGI (RPMI-8226 leukemia) of 21.4 µM, a GI50 (RXF 393 renal) of 1.9 µM and a TGI (RXF 393 renal) of 7.74 µM. For the same compound, the GI50 (SF-268 CNS) was 5.88 µM, the TGI (SF-268 CNS) was 22.9 µM and the GI50 (SF-295 CNS) was 15.7 µM. It also gave a TGI (SF-295 CNS) of 30.3 µM, a GI50 (SF-539 CNS) of 2.44 µM and a TGI (SF-539 CNS) of 8.98 µM. It also gave a GI50 (SK-MEL-2 melanoma) of 12.6 µM, a TGI (SK-MEL-2 melanoma) of 26.5 µM and a GI50 (SK-MEL-28 melanoma) of 12.5 µM. For the same compound, the TGI (SK-MEL-28 melanoma) was 25.3 µM, the GI50 (SK-MEL-5 melanoma) was 17.6 µM and the TGI (SK-MEL-5 melanoma) was 32.4 µM. The GI50 (SK-OV-3 ovarian) was 14.4 µM, the TGI (SK-OV-3 ovarian) was 27.6 µM and the GI50 (SN12C renal) was 3.49 µM. The TGI (SN12C renal) was 16.9 µM, the GI50 (SNB-19 CNS) was 14 µM and the TGI (SNB-19 CNS) was 28.5 µM. It also gave a GI50 (SNB-75 CNS) of 2.08 µM, a TGI (SNB-75 CNS) of 7.32 µM and a GI50 (SR leukemia) of 1.73 µM. For the same compound, the TGI (SR leukemia) was 24.8 µM, the GI50 (SW-620 colon) was 2.68 µM and the TGI (SW-620 colon) was 13.4 µM. It also gave a GI50 (T-47D breast) of 2.09 µM, a TGI (T-47D breast) of 12.1 µM and a GI50 (TK-10 renal) of 12.9 µM. The TGI (TK-10 renal) was 25.8 µM, the GI50 (U251 CNS) was 2.92 µM and the TGI (U251 CNS) was 15.2 µM. It also gave a GI50 (UACC-257 melanoma) of 9.96 µM, a TGI (UACC-257 melanoma) of 21.8 µM and a GI50 (UACC-62 melanoma) of 12.2 µM. For the same compound, the TGI (UACC-62 melanoma) was 26.9 µM, the GI50 (UO-31 renal) was 4.76 µM and the TGI (UO-31 renal) was 19 µM.
